Results as given in patent US9850483B2, “Methods and systems for analysis of single cells” (The Board of Trustees of the Leland Stanford Junior …, priority 2010, dated 2017).

Tested on: murine breast cancer stem cells
Experiment: Clonogenic ability of murine breast cancer stem cells (colony number)
Type: cell-based
Settings: short, 24 hour exposure to the inhibitor; p<0.02, t test
Protocol: Many of these genes have been linked to self renewal and cancer. These include the insulin growth factor binding partner IGFBP3, the HOX family members HOXA3, HOXA5, ME1S1 as well as transcription factors like ETS1, ETS2, RUNX2 and STAT3. It was tested whether the transcription factor STAT3 is a bona fide cancer stem cell regulator. STAT3 plays a role in the maintenance of both ES cells and HSCs. […] Next, when we examined immunochemistry analysis of breast tumors the STAT3 positive cells tended to be concentrated on the invasive edge of the cancer and the protein was not seen in the more differentiated-looking cells in the interior parts of tumors. Finally, there are small molecule inhibitors of STAT3. Such inhibitors can be tested in cancer stem cell models. The effect of the STAT3 inhibitor cucurbitacin on the clonogenic ability of murine breast cancer stem cells was tested.

cucurbitacin
reduction of the number of colonies: ~50%
